Test systems include MOLT-4 leukemia; KM12 colon; SR leukemia; 786-0 renal; NCI-H522 lung; LOX IMVI melanoma; MALME-3M melanoma; HS 578T breast; T-47D breast; MDA-MB-435.
What all share (experiment): growth of human tumour cells (NCI), 48 h

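All cell lines were grown in 96-well plates and treated with compound for 48 hours. The concentration for 50% growth inhibition is given as GI50. TGI marks complete inhibition of growth.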

This is an account of results in PubChem BioAssay (NCI).

As to `CCCCCCCCCCCC(=O)OCCOCCOCCOCCOCCOCc1ccc(OC)cc1`, the TGI in the assay on MOLT-4 leukemia, in the assay with KM12 colon, in the assay with SR leukemia, with 786-0 renal, in the assay with NCI-H522 lung and in the assay on LOX IMVI melanoma was above 100 µM throughout. This molecule also came in with a TGI in the assay on MALME-3M melanoma above 100 µM.
`CCOC(=O)C1Oc2ccc([N+](=O)[O-])c3c2C1(O)CCC3` (stereo not given): the TGI with MOLT-4 leukemia, in the assay with KM12 colon, in the assay on SR leukemia, in the assay with 786-0 renal, in the assay on NCI-H522 lung and in the assay on LOX IMVI melanoma was above 100 µM throughout. This molecule also showed a TGI in the assay on MALME-3M melanoma above 100 µM.
For `N#CC(C(=O)CCC(=O)Nc1cccc(Cl)c1)c1ccccc1` (stereo not given), the TGI with MOLT-4 leukemia, in the assay on KM12 colon, in the assay on SR leukemia, with 786-0 renal, in the assay on NCI-H522 lung and in the assay with LOX IMVI melanoma was above 100 µM each time. Further, the TGI with MALME-3M melanoma was above 100 µM.
In the case of `CCCCCCc1cc(C(=O)Nc2cccc(C(F)(F)F)c2)nc(N)n1`, the TGI in the assay with MOLT-4 leukemia, with KM12 colon, with SR leukemia, in the assay with 786-0 renal, in the assay with LOX IMVI melanoma and with MALME-3M melanoma was above 100 µM in each case.
Regarding `CSCC1CC(c2ccc(Cl)cc2)=NO1` (stereo not given), the TGI with MOLT-4 leukemia, in the assay with KM12 colon, in the assay with SR leukemia, with 786-0 renal, in the assay on NCI-H522 lung and with MALME-3M melanoma was above 100 µM in each case.
As to `C[Si](C)(C)OC1(C#N)C2C3CC4C2C(=O)C2C4C3C21` (stereo not given), the TGI in the assay on MOLT-4 leukemia, in the assay with KM12 colon, with SR leukemia, in the assay with 786-0 renal and in the assay on MALME-3M melanoma was above 100 µM each time.
As for `O=C(/C(=C/c1ccc([N+](=O)[O-])cc1)c1ccccc1)c1ccccc1`, the GI50 was 2.74 µM with HS 578T breast; 3.06 µM with KM12 colon; 2.79 µM in the assay with SR leukemia; 3.56 µM with 786-0 renal; 3.13 µM in the assay with T-47D breast. Besides, the TGI in the assay on HS 578T breast was above 100 µM; in the assay on KM12 colon, 9.52 µM; in the assay with SR leukemia it was above 100 µM; in the assay with 786-0 renal it was above 100 µM; in the assay with T-47D breast, above 100 µM.
Turning to `CCC1CN2CCc3cc(OC)c(OC)cc3C2CC1CC1c2cc(OC)c(OC)cc2CCN1C(=O)C1CCCN1C(=O)OCc1ccccc1` (stereo not given), the TGI in the assay on KM12 colon is 30.1 µM; in the assay with 786-0 renal it was 40.8 µM; with LOX IMVI melanoma it was 29.1 µM; in the assay on MALME-3M melanoma, 32.4 µM.
Take `c1ccc(SC(CCCCC(Sc2ccccc2)Sc2ccccc2)Sc2ccccc2)cc1`: the TGI in the assay with MOLT-4 leukemia, in the assay on KM12 colon, in the assay with SR leukemia, with 786-0 renal and in the assay with LOX IMVI melanoma was above 100 µM throughout.
Regarding `O=C1C(=O)N(c2ccc(Cl)c(Cl)c2)C(=O)C(=O)C1c1nc2ccccc2s1`, the TGI with MOLT-4 leukemia, in the assay on SR leukemia, in the assay on 786-0 renal, with NCI-H522 lung, in the assay with LOX IMVI melanoma and in the assay on MALME-3M melanoma was above 100 µM throughout.
On to `Cc1cc(N(CCC#N)CCC#N)ccc1/C=C/C(=O)Nc1cccc(Cl)c1`, for which the TGI with MOLT-4 leukemia, in the assay on KM12 colon, in the assay with 786-0 renal, in the assay with NCI-H522 lung, with LOX IMVI melanoma and in the assay on MALME-3M melanoma was above 100 µM each time.
Consider `C=C1COC(/C=C(\C)CC/C=C(\C)CCl)C1` (stereo not given), for which the TGI in the assay with MOLT-4 leukemia, in the assay on KM12 colon, with 786-0 renal, with NCI-H522 lung and with LOX IMVI melanoma was above 100 µM each time.
`c1ccc2c(c1)c(NCCCCN1CCCCC1)cc1c3ccccc3c(NCCCCN3CCCCC3)cc21`: the GI50 in the assay with MOLT-4 leukemia is 6.96 µM; in the assay with HS 578T breast, 27.5 µM; in the assay on KM12 colon, 2.97 µM; with 786-0 renal it was 12 µM; with NCI-H522 lung, 66.2 µM; in the assay on LOX IMVI melanoma it was 11.2 µM. In addition, the GI50 with MALME-3M melanoma was 12.9 µM; in the assay on MDA-MB-435, 3.42 µM. Moreover, the TGI is above 100 µM in the assay on MOLT-4 leukemia; 68.6 µM in the assay with HS 578T breast; 8.98 µM in the assay with KM12 colon; 29.1 µM in the assay with 786-0 renal; above 100 µM in the assay on NCI-H522 lung; 28.2 µM in the assay on LOX IMVI melanoma. Besides, the TGI in the assay on MALME-3M melanoma is 38.7 µM; in the assay with MDA-MB-435, 12.3 µM.
On to `C=CCc1cc(OC)c2c(c1)C(O)CC(c1ccccc1)O2` (stereo not given), for which the TGI with MOLT-4 leukemia, with KM12 colon, in the assay with SR leukemia, with 786-0 renal, in the assay on NCI-H522 lung and with MALME-3M melanoma was above 100 µM each time.
With `COc1ccc(N=c2ssc3c(=S)ssc23)cc1`, the TGI was 26.9 µM in the assay with MOLT-4 leukemia; above 100 µM in the assay on KM12 colon; 20.1 µM in the assay with SR leukemia; above 100 µM in the assay on 786-0 renal; 35.5 µM with NCI-H522 lung; 34.1 µM in the assay on LOX IMVI melanoma. In the assay with MALME-3M melanoma, this molecule gave a TGI above 100 µM.
On to `Cn1cnc2nc(Cl)nc(NC(C)(C)C(C)(C)O)c21`, for which the TGI in the assay with MOLT-4 leukemia, in the assay with KM12 colon, with SR leukemia, in the assay with 786-0 renal, in the assay with NCI-H522 lung and with MALME-3M melanoma was above 100 µM each time.
For `O=C(O)C1(P(=O)(O)O)CC1`, the TGI in the assay with MOLT-4 leukemia, in the assay with KM12 colon, with 786-0 renal, with NCI-H522 lung and with MALME-3M melanoma was above 100 µM each time.
In the case of `O=C1OC(CCCl)(c2ccccc2)CC1CN1CCOCC1` (stereo not given), the TGI in the assay on MOLT-4 leukemia turned out to be 48 µM; in the assay with KM12 colon, 47.7 µM; in the assay with 786-0 renal, 24.4 µM; with NCI-H522 lung, 33.5 µM; in the assay on LOX IMVI melanoma, 83.1 µM; with MALME-3M melanoma, 33.5 µM.
